Results published in patent US10647708B2, “Tetrahydroisoquinoline derived PRMT5-inhibitors” (CTXT PTY LTD, priority 2014, dated 2020).

Key:
[1] = biological target: Full-length PRMT5 enzyme co-expressed with MEP50 (Homo sapiens (Human), UniProt O14744); test: PRMT5 Biochemical Assay; settings: 200 nM peptide substrate, 1 μM S-Adenosyl methionine, 4 hours at 37° C., Transcreener EPIGEN fluorescence polarisation
Source text: Compounds of the invention may be tested for in vitro activity in the following assay: A histone H4 derived peptide is used as substrate (amino acid sequence: […]NH2). Full-length PRMT5 enzyme (NCBI Reference sequence NP_006100.2) was co-expressed with Hiss-MEP50 in insect cells and purified via Nickel immobilized metal affinity and gel filtration chromatography (“the enzyme”).
The […] assay reactions are run in Greiner brand black 384-well low volume plates. All reactions contained assay buffer (phosphate buffered saline, 0.01% (v/v) Tween-20, 0.01% (w/v) albumin from chicken egg white, 1 mM dithiothreitol, 200 nM peptide substrate, 1 μM S-Adenosyl methionine, and 15 ng/reaction enzyme, with the enzyme being omitted from negative control reactions. Compounds were added in a volume of 100 nL from dilution series prepared in DMSO, positive and negative control reactions receiving the same volume DMSO without compound. The plates were sealed with adhesive seals and incubated for 4 hours at 37° C. Reaction progress was measured using the Transcreener™ EPIGEN methyltransferase assay (BellBrook Labs, Madison, Wis.) as recommended by the manufacturer. To each reaction 2 μL detection mix were added, containing coupling enzymes, fluorescence polarisation tracer, and AMP antibody. […]

[2] = system: symmetrical dimethylation of arginine (Histone H4R3) in cell line TE11; test: PRMT5 Biomarker Assay (Di-Methyl Histone H4R3 ELISA); assay type: cell-based; settings: Homo sapiens, TE-11; TE11 cells, 72 h incubation, EpiQuik Global Di-Methyl Histone H4R3 ELISA, corrected for total protein
Method: Compounds of the invention may be tested for potency to inhibit symmetrical […] of arginine in the following assay:
The cell line TE11 was seeded at a density of 12,000 cells per well in 96 well tissue culture plates in DME medium and 10% foetal bovine serum, and allowed to adhere overnight under standard culture conditions (37° C., 5% CO2). Compound dilutions prepared in DMSO were added to the medium, with negative control wells reserved for treatment with DMSO only and positive controls receiving a potent PRMT5 inhibitor. The concentration of the inhibitor had been previously determined to give maximum inhibition of the methylation. After incubation for 72 h, cells were washed twice in ice-cold PBS, lysed in lysis buffer (20 mM Tris pH 7.4, 135 mM NaCl, 1.5 mM MgCl2, 1 mM EGTA, 10% glycerol and 1% Triton-X100), centrifuged at 15,000×g and the supernatants collected for subsequent analysis. The methylation level was determined using the EpiQuik™ Global Di-Methyl Histone H4R3 Quantification ELISA Kit (Epigentek, Farmingdale, N.Y.) as per the manufacturer's recommendations; in parallel the total protein amount in the lysate was quantified using a Lowry protein assay. […]

[3] = system: symmetrical dimethylation of arginine (Histone H4 Arginine 3) in cell line TE11; test: Revised PRMT5 Biomarker Assay; assay type: cell-based; settings: Homo sapiens, TE-11; TE11 cells, 72 hours incubation, anti-Di-Methyl Histone H4 Arginine 3 immunofluorescence, plate-reader based
Method: Compounds of the invention may be tested for potency to inhibit symmetrical dimethylation of arginine in the following assay:
The cell line TE11 was seeded at a density of 6,000 cells per well in 96 well optical quality tissue culture plates in DME medium and 10% foetal bovine serum, and allowed to adhere for 5 hours under standard culture conditions (37 degree Celsius, 5% CO2). Compound dilutions prepared in DMSO were added to the medium, with negative control wells reserved for treatment with DMSO only and positive controls receiving a potent PRMT5 inhibitor compound at 1 μM concentration. After incubation for 72 hours, the cells were fixed with 3.7% formaldehyde in PBS for 30 minutes at room temperature, washed with phosphate buffer saline and blocked with Odyssey blocking buffer (LI-COR, Lincoln, Nebr.). Rabbit anti-Di-Methyl Histone H4 Arginine 3 specific antibody (Epigentek) in Odyssey blocking buffer was added and incubated for 14 hours at 4 degree Celsius. After washing, anti-rabbit secondary antibody labelled with Alexa647 dye (LifeTechnologies) and Hoechst 33342 (1 μg/mL, SigmaAldrich) were added for 1 hour incubation. Plates were washed and read on a PerkinElmer Envision 2103 in fluorescence intensity scanning mode (24 scans across the well area). The methylation level information was corrected for the number of cells as expressed by the Hoechst 33342 stain, converted to percent inhibition relative to controls on the same plate and the data fitted against a four-parameter logistic model to determine the 50% inhibitory concentration (IC50 plate-reader based). Alternatively, the plates were imaged on a PerkinElmer Phenix high content imaging platform. Using a Columbus image analysis pipeline, individual nuclei were located by Hoechst 33342 stain and the methylation level was calculated from the Alexa647-related intensity in the same area. The resulting mean intensity per cell was directly converted to percent inhibition as outlined above (IC50, imager based)).

Sequence of Full-length PRMT5 enzyme co-expressed with MEP50 (O14744 whole entry): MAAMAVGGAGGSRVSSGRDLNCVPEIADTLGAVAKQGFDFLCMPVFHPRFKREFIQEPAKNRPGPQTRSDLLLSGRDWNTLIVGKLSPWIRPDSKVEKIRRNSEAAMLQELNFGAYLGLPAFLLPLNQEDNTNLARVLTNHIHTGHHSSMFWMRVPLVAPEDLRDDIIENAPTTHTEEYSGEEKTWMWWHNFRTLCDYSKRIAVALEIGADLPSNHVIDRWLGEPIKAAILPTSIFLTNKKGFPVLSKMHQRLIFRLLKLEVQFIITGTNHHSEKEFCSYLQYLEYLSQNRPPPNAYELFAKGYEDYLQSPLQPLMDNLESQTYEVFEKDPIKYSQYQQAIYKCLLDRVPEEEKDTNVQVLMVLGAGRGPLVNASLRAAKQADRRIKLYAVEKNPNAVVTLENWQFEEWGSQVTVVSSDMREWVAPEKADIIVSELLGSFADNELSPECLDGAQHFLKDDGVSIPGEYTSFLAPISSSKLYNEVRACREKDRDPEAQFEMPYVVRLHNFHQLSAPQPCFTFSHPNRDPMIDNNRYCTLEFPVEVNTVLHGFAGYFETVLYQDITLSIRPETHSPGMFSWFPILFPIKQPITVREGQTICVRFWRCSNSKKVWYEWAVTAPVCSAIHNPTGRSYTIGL
Sequence of Full-length PRMT5 enzyme co-expressed with MEP50 (Q9BQA1 whole entry partner): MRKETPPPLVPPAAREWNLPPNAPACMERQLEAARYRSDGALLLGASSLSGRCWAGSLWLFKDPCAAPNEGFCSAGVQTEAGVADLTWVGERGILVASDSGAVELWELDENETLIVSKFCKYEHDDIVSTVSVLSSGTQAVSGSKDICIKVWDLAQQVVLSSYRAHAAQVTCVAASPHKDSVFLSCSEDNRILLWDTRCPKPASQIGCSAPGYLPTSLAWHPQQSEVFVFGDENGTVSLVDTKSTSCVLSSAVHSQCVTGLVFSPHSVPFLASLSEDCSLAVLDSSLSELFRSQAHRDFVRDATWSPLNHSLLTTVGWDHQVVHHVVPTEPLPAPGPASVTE

In the case of `O=C(NCCC(O)CN1CCc2ccccc2C1)c1ccc(Cl)cc1` (stereo not drawn) [Compound 1, 4-Chloro-N-(4-(3,4-dihydroisoquinolin-2(1H)-yl)-3-hydroxybutyl)benzamide], the IC50 [1] is reported as 359 nM, the IC50 [2] is reported as 40.4 nM and the IC50 [3] is reported as 0.318 µM.
